The values that follow come from US10633366B2, “Antibacterial compounds” (AZIENDE CHIMICHE RIUNITE ANGELINI FRANCESCO A.C.R.A.F. …, priority 2016, dated 2020).

What all share (experiment): biochemical
One experiment has as its target E. coli DNA gyrase (Escherichia coli, UniProt P0AES4+P0AES6). The following applies: for IC50: IC50 DNA gyrase; for inhibition at 50 µM: read-out: % inhibition DNA gyrase.
Another experiment concerns the target E. coli Topoisomerase IV (Escherichia coli, UniProt P0AFI2+P20083). The following applies: for IC50: IC50 Topo IV; for inhibition at 50 µM: read-out: % inhibition Topo IV.
A further experiment addresses S. aureus DNA gyrase (Staphylococcus aureus, UniProt P0A0K8+P20831). The settings on record: for IC50: IC50 DNA gyrase; for inhibition at 50 µM: read-out: % inhibition DNA gyrase.
The target of experiment [1] is S. aureus Topoisomerase IV (Staphylococcus aureus, UniProt P0C1S7+P0C1U9). The settings on record: for inhibition at 50 µM: read-out: % inhibition Topo IV.
Chain of S. aureus Topoisomerase IV (P0C1U9 whole entry): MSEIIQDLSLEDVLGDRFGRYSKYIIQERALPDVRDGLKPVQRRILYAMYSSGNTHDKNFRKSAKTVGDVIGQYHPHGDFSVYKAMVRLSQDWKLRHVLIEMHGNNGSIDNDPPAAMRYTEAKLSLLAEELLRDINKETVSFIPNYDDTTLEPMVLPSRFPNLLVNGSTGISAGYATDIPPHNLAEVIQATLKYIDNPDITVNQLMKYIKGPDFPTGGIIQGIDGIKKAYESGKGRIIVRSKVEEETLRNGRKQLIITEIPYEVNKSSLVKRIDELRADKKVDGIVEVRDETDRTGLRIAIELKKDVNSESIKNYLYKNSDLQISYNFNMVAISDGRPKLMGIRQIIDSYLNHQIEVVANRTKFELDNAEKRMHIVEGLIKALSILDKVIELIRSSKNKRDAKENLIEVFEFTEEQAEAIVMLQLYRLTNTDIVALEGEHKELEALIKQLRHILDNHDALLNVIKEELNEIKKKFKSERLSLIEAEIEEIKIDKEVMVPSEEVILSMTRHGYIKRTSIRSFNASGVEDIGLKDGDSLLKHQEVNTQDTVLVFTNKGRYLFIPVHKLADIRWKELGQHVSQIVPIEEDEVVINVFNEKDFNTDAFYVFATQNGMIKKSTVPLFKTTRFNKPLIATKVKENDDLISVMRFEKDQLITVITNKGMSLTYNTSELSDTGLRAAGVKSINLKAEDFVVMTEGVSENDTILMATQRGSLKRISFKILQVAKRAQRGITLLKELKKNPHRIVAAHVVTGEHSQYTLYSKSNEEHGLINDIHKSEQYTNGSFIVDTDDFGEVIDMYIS
Chain of S. aureus Topoisomerase IV (P0C1S7 whole entry): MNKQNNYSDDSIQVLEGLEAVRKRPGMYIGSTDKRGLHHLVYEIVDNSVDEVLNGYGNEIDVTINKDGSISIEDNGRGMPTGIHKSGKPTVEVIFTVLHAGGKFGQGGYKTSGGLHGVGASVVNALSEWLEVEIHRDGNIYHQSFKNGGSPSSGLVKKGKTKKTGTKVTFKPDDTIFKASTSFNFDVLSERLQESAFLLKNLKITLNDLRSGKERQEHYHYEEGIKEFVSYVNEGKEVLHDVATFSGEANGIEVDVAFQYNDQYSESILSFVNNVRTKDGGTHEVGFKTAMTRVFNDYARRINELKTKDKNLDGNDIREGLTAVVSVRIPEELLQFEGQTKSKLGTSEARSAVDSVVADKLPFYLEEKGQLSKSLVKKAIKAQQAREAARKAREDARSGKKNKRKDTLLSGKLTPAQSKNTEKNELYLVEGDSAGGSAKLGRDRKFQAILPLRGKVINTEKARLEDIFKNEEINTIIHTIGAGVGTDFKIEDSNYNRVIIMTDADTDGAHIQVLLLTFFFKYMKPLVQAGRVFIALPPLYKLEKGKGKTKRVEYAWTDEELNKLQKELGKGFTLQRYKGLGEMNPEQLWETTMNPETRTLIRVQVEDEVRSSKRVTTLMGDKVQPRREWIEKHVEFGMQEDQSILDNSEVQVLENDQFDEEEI
Where [2] appears, read: S. aureus, compound conc. 50 μM, percent of inhibition versus positive control, n/a = not active.

Read-outs that look alike come from different tables or passages of the source.

Chain of E. coli DNA gyrase (P0AES4 whole entry, one chain of several): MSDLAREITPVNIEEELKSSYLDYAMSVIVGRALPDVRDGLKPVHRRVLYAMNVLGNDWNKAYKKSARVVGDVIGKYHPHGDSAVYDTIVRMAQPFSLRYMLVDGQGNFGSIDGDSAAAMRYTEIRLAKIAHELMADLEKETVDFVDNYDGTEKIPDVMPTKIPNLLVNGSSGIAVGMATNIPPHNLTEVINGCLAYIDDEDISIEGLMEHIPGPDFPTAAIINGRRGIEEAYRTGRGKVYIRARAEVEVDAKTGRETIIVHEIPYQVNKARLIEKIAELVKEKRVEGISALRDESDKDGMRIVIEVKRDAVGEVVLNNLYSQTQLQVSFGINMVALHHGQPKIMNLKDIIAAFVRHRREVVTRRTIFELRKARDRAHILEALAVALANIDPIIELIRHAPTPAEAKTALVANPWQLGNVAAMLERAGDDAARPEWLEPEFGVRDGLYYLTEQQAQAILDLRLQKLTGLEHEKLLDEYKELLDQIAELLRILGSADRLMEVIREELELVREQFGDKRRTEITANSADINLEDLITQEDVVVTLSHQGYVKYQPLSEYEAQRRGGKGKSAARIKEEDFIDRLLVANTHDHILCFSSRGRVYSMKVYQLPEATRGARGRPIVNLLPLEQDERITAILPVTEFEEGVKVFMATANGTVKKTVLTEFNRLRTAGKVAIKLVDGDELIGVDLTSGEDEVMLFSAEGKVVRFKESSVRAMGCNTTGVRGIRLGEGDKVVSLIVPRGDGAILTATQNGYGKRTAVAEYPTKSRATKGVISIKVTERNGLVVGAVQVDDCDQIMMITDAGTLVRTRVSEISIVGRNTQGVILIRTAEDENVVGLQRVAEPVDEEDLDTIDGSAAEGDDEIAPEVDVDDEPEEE
Chain of E. coli Topoisomerase IV (P0AFI2 whole entry): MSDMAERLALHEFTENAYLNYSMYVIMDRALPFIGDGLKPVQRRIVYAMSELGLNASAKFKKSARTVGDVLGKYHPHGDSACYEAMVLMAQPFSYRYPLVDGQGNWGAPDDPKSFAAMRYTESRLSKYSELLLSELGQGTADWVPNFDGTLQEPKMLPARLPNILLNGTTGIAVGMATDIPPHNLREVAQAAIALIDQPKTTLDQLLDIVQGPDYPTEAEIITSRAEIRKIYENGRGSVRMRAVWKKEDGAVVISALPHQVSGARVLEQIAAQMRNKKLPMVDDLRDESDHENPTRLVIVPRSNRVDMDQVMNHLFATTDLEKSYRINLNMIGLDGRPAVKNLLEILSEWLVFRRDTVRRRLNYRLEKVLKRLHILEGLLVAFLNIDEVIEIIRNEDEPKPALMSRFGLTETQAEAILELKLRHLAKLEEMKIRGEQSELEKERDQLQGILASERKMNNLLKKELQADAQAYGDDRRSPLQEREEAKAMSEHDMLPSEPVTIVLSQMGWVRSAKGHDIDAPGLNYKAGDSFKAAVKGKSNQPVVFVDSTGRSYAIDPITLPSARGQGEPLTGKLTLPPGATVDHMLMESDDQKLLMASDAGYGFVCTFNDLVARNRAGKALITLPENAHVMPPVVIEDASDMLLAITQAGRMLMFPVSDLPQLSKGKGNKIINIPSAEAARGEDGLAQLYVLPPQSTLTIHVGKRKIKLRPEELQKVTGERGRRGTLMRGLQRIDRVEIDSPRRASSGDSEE
Chain of E. coli Topoisomerase IV (P20083 whole entry): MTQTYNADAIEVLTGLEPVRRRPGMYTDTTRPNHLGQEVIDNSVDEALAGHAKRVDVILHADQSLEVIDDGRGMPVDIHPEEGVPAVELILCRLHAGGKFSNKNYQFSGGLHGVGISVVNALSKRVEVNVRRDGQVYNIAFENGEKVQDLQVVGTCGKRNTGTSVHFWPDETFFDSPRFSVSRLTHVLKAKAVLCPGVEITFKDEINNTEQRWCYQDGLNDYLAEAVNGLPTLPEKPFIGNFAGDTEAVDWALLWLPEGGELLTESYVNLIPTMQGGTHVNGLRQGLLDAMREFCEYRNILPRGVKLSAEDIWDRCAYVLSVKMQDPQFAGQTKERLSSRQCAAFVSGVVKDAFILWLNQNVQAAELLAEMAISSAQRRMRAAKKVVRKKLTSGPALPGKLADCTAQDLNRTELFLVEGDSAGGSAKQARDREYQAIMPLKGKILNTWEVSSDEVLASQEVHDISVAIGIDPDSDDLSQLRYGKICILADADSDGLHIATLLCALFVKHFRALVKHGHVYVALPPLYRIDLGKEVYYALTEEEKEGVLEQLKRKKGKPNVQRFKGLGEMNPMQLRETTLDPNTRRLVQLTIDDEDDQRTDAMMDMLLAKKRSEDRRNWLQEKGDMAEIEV

For `O=c1cc(NCC(O)C2CCN(C[C@@H]3Cn4c(=O)ccc5ncc(=O)n3c54)CC2)c2cc(F)ccc2o1` (mixture of isomers) [Compound 343, (2R)-2-[(4-{2-[(6-fluoro-2-oxo-2H-1-benzopyran-4-yl)amino]-1-hydroxyethyl}piperidin-1-yl)methyl]-1,2-dihydro-3H,8H-2a,5,8a-triazaacenaphthylene-3,8-dione], the IC50 was found to be 910 nM on E. coli DNA gyrase, 1270 nM against E. coli Topoisomerase IV, 1980 nM at S. aureus DNA gyrase and 8730 nM in experiment [1] (IC50 Topo IV).
As for `O=c1oc2ccccc2c2[nH]c(CNCC3CCN(c4nccc5ccc(F)cc45)C3)cc12` (single isomer, unassigned) [Compound 180, 2-[({[1-(7-fluoroisoquinolin-1-yl)pyrrolidin-3-yl]methyl}amino)methyl][1]benzopyrano[4,3-b]pyrrol-4(1H)-one], the IC50 worked out at 480 nM against E. coli DNA gyrase, 3780 nM against E. coli Topoisomerase IV, 1700 nM against S. aureus DNA gyrase and 110 nM in experiment [1] (IC50 Topo IV). The inhibition at 50 µM on E. coli DNA gyrase came to 58%; on S. aureus DNA gyrase, 90%; in experiment [1] (setting [2]), 50%. Also, the “% inhibition Topo IV” value on E. coli Topoisomerase IV worked out at 57%.
As for `O=c1oc2ccccc2c2[nH]c(CNCC3CCN(c4nccc5ccc(F)cc45)C3)cc12` (single isomer, unassigned) [Compound 181, 2-[({[1-(7-fluoroisoquinolin-1-yl)pyrrolidin-3-yl]methyl}amino)methyl][1]benzopyrano[4,3-b]pyrrol-4(1H)-one], the “% inhibition DNA gyrase” value is given as 53% at E. coli DNA gyrase and 92% on S. aureus DNA gyrase. Besides, the IC50 against E. coli DNA gyrase is 440 nM; against E. coli Topoisomerase IV it was 3670 nM; at S. aureus DNA gyrase it was 730 nM; in experiment [1] (IC50 Topo IV), 360 nM. The “% inhibition Topo IV” value is given as 91% on E. coli Topoisomerase IV and 50% in experiment [1] (setting [2]).
Regarding `O=c1oc2ccccc2c2[nH]c(CNCC3CN(c4nccc5ccc(F)cc45)CCO3)cc12` (single isomer, unassigned) [Compound 182, 2-[({[4-(7-fluoroisoquinolin-1-yl)morpholin-2-yl]methyl}amino)methyl][1]benzopyrano[4,3-b]pyrrol-4(1H)-one], the concentration for half-maximal inhibition (IC50) against E. coli DNA gyrase came to 740 nM; against E. coli Topoisomerase IV it was 3210 nM; at S. aureus DNA gyrase it was 640 nM; in experiment [1] (IC50 Topo IV), 740 nM. Further, the inhibition at 50 µM at E. coli DNA gyrase was 61%; at S. aureus DNA gyrase, 92%. Besides, the “% inhibition Topo IV” value at E. coli Topoisomerase IV was 52%; in experiment [1] (setting [2]), 50a %.
Regarding `O=c1oc2ccccc2c2[nH]c(CNCC3CN(c4nccc5ccc(F)cc45)CCO3)cc12` (single isomer, unassigned) [Compound 183, 2-[({[4-(7-fluoroisoquinolin-1-yl)morpholin-2-yl]methyl}amino)methyl][1]benzopyrano[4,3-b]pyrrol-4(1H)-one], the “% inhibition DNA gyrase” value is on record as 81% at E. coli DNA gyrase and 84% on S. aureus DNA gyrase. The IC50 at E. coli DNA gyrase came to 770 nM; against E. coli Topoisomerase IV, 2480 nM; on S. aureus DNA gyrase, 740 nM; in experiment [1] (IC50 Topo IV), 190 nM. Also, the “% inhibition Topo IV” value at E. coli Topoisomerase IV is listed as 77%; in experiment [1] (setting [2]) it was 85%.
With `O=c1nc(NCC(O)CN2CCN(c3nccc4ccncc34)CC2)c2cc(F)ccc2o1` (stereo not shown) [Compound 157, 6-fluoro-4-({2-hydroxy-3-[4-(2,7-naphthyridin-1-yl)piperazin-1-yl]propyl}amino)-2H-1,3-benzoxazin-2-one], the IC50 on E. coli DNA gyrase came out at 2340 nM; at E. coli Topoisomerase IV, 640 nM; on S. aureus DNA gyrase it was 2480 nM; in experiment [1] (S. aureus, Table 3, eight half-log concentrations ranging from 0.1 to 300 μM, read-out: IC50 Topo IV), 1020 nM. For the same molecule, the inhibition at 50 µM stood at 83% on E. coli DNA gyrase, 100% at E. coli Topoisomerase IV, 89% at S. aureus DNA gyrase and 100% in experiment [1].
As for `Fc1ccc2ccnc(N3CCC(NCc4c[nH]c(-c5ccccn5)n4)CC3)c2c1` [Compound 160, 1-(7-fluoroisoquinolin-1-yl)-N-{[2-(pyridin-2-yl)-1H-imidazol-4-yl]methyl}piperidin-4-amine], the figures for the inhibition at 50 µM at E. coli DNA gyrase, at E. coli Topoisomerase IV and at S. aureus DNA gyrase were 50%, 60% and 65%, respectively. Also, the results for the IC50 at E. coli Topoisomerase IV and against S. aureus DNA gyrase were 21500 nM and 20800 nM, respectively.
Regarding `O=c1nc(NCC(O)CN2CCN(c3nccc4cc[n+]([O-])cc34)CC2)c2cc(F)ccc2o1` (stereo not shown) [Compound 164, 8-(4-(3-((6-fluoro-2-oxo-2H-benzo[e][1,3]oxazin-4-yl)amino)-2-hydroxypropyl)piperazin-1-yl)-2,7-naphthyridine 2-oxide], the IC50 against E. coli DNA gyrase was 3770 nM; against E. coli Topoisomerase IV, 1780 nM; against S. aureus DNA gyrase, 1460 nM; in experiment [1] (IC50 Topo IV), 700 nM. Further, the inhibition at 50 µM (at E. coli DNA gyrase; at E. coli Topoisomerase IV; on S. aureus DNA gyrase; in experiment [1]) was 100% throughout.
For `O=C1COc2ncc(F)cc2N1[C@H]1CC[C@H](NCc2cc3c(=O)oc4ccc(F)cc4c3[nH]2)CC1` [Compound 193, 8-fluoro-2-({[trans-4-(7-fluoro-2-oxo-2,3-dihydro-1H-pyrido[2,3-b][1,4]oxazin-1-yl)cyclohexyl]amino}methyl)[1]benzopyrano[4,3-b]pyrrol-4(1H)-one], the IC50 came out at 250 nM at E. coli DNA gyrase, 1380 nM on E. coli Topoisomerase IV, 280 nM on S. aureus DNA gyrase and 2250 nM in experiment [1] (IC50 Topo IV). The inhibition at 50 µM is 77% at E. coli DNA gyrase, 50% at E. coli Topoisomerase IV, 86% on S. aureus DNA gyrase and 74% in experiment [1].
For the molecule `COc1ccc2ncc(=O)n(C3CCN(CCc4cc5c(=O)oc6ccc(F)cc6c5[nH]4)CC3)c2n1` [Compound 197, 8-fluoro-2-{2-[4-(6-methoxy-3-oxopyrido[2,3-b]pyrazin-4(3H)-yl)piperidin-1-yl]ethyl}[1]benzopyrano[4,3-b]pyrrol-4(1H)-one], the inhibition at 50 µM is 87% on E. coli DNA gyrase, 63% at E. coli Topoisomerase IV, 90% at S. aureus DNA gyrase and 79% in experiment [1].
Take `COc1cnc2ccc(=O)n(C3CCN(CCc4cc5c(=O)oc6ccc(F)cc6c5[nH]4)CC3)c2n1` [Compound 200]: the IC50 at E. coli DNA gyrase was 40 nM; at E. coli Topoisomerase IV, less than 100 nM; at S. aureus DNA gyrase, less than 100 nM; in experiment [1] (IC50 Topo IV) it was less than 100 nM. Also, the inhibition at 50 µM on E. coli DNA gyrase stood at 90%; on E. coli Topoisomerase IV, 100%; on S. aureus DNA gyrase, 100%; in experiment [1] it was 100%.
For the molecule `N#Cc1cnc2c(c1)N([C@H]1CC[C@@H](NCc3cc4c(=O)oc5ccc(F)cc5c4[nH]3)CC1)C(=O)CO2` [Compound 215, 1-(cis-4-{[(8-fluoro-4-oxo-1,4-dihydro[1]benzopyrano[4,3-b]pyrrol-2-yl)methyl]amino}cyclohexyl)-2-oxo-2,3-dihydro-1H-pyrido[2,3-b][1,4]oxazine-7-carbonitrile], the inhibition at 50 µM is 69% at E. coli DNA gyrase and 96% at S. aureus DNA gyrase.
